Measurements as given in article PMC10526274, “Epithelial-Immune Cell Crosstalk Determines the Activation of Immune Cells In Vitro by the Human Cathelicidin LL-37 at Low Physiological Concentrations” (Biomolecules, 2023).
Where “and” joins values, the source holds several entries; their conditions need not be identical. Identical values can stand only once.

System: Caco-2/monocytes co-culture
Assay: Multiplex xMAP cytokine levels, Caco-2/monocytes co-culture stimulated with LL-37
Type: cell-based, human
Conditions: monocytes/Caco-2 co-culture, 1 µM LL-37, 24 h, n=2
Procedure: Caco-2 cell line (ATCC HTB-37) was cultured in a humidified CO2-incubator (5% CO2, 37 °C) in the complete DMEM/F12 (1:1) medium (Gibco, Waltham, MA, USA) containing 10% fetal bovine serum (FBS, Gibco) and 1X antibiotic–antimycotic solution (Gibco). To stabilize the cell phenotype, Caco-2 cells have been subcultivated three times before seeding on the filter supports. Then, Caco-2 cells were seeded at a density of 2 × 10^5 cells/cm^2 onto 24-well Millicell cell culture inserts (PC, 0.4-μm pore size, 0.6 cm^2 surface area, cat. #PIHP01250) (Millipore, Burlington, MA, USA), precoated with 0.2% bovine gelatin (Sigma-Aldrich, Saint Louis, MO, USA). After seeding, Caco-2 cells were grown in the same complete medium with re-feeding every 2–3 days until polarization of the monolayer occurred. The functional polarity of the monolayers was developed when transepithelial electrical resistance (TEER) between the apical and basolateral surfaces of the monolayers reached […] as measured by the electrical resistance system Millicell-ERS Voltohmmeter (Millipore, Burlington, MA, USA). Grown cell monolayers were used in transport and cytokine production experiments between the 21st and 29th days.
Peripheral blood mononuclear cells (PBMCs) from a healthy donor were purchased from the American Type Culture Collection (ATCC PCS-800-011). Blood monocytes were isolated from PBMCs by plastic adhesion. Mature monocyte-derived dendritic cells (moDCs) were generated in vitro from peripheral blood monocytes, according to Nair et al.. Briefly, monocytes were cultured in a humidified CO2-incubator (5% CO2, 37 °C) in the complete RPMI-1640 medium (Gibco) with 10% FBS, antibiotics, and supplemented with a cytokine cocktail containing 500 U/mL rhIL-4 and 800 U/mL rhGM-CSF (both Sci-Store, Moscow, Russia). On the third day, the medium was replaced by the same fresh medium with FBS, antibiotics, and the cytokine cocktail. Induction of maturation of the immature monocyte-derived dendritic cells was performed on the 5th day by replacing the medium with the complete RPMI-1640 medium (Gibco) with 10% FBS and antibiotics, supplemented with a cytokine cocktail containing 500 U/mL rhIL-4, 800 U/mL rhGM-CSF (both Sci-Store, Moscow, Russia), and 100 U/mL rhTNF-α (Sigma-Aldrich), and subjected to subsequent incubation of the culture for 4 more days.
Primary blood monocytes, moDCs, and NKT cells were seeded in 600 µL of complete RPMI-1640 with 10% Human AB serum (Capricorn Scientific, Ebsdorfergrund, Germany) and supplemented with 1X antibiotic–antimycotic solution into the wells of 24-well plates at a density of 3–7 × 10^5 cells/well 24 h before the experiment. Then, 24 h later, the medium in each well was replaced by the same medium with 1 µM of LL-37 for the sample wells or fresh medium alone for the control wells, and the permeable inserts with the Caco-2 monolayer with TEER > 400 Ω × cm^2, containing 400 μL of the complete medium in their apical chamber, were immediately placed into the appropriate wells. Also, inserts with the Caco-2 monolayer were placed in cell-free wells of 24-well plates in the same complete RPMI-1640 medium with or without 1 µM of LL-37 as controls. Cells were kept in a CO2-incubator (5% CO2, 37 °C) for another 24 h. Then, culture medium from each well was collected, centrifuged, and frozen at −70 °C.
To quantitatively evaluate a broad spectrum of analytes secreted by human cell cultures at the protein level, multiplex xMAP technology was used. […]

LL-37: the only human cathelicidin, host defense antimicrobial peptide of 37 a.a. residues, produced by solid-phase peptide synthesis
IL-2 level (control 1.07): 1.07 pg/mL
FLT-3L level (control 1.18): 1.37 pg/mL
IFNg level (control 1.33): 2.28 pg/mL
IL-15 level (control 1.67): 2.58 pg/mL
IL-18 level (control 3.28): 2.42 pg/mL
TGF-a level (control 3.5): 3.88 pg/mL
GM-CSF level (control 3.75): 18.58 pg/mL
IL-4 level (control 6.54): 8.01 pg/mL
IL-9 level (control 6.65): 8.94 pg/mL
EGF level (control 8.06): 10.26 pg/mL
IFNa2 level (control 11.65): 13.12 pg/mL
IL-10 level (control 14.79, p = 0.0007): 57.4 pg/mL and 57.47 pg/mL
TNFb level (control 21.66, p = 0.015): 30.56 pg/mL
IL-1a level (control 22.02): 53.04 pg/mL
Fractalkine level (control 22.95): 31.4 pg/mL
MIP-1a level (control 27.72, p = 0.11): 3622 pg/mL
IL-1b level (control 29.14, p = 0.0072): 104 pg/mL and 104.8 pg/mL
IL-12 (p40) level (control 34.49): 56.57 pg/mL
M-GSF level (control 35.52): 157.86 pg/mL
IL-1RA level (control 42.52): 108.8 pg/mL
IL-13 level (control 42.56): 52.71 pg/mL
FGF-2 level (control 48.6): 52.5 pg/mL
IL-22 level (control 48.87, p = 0.029): 71 pg/mL and 71.9 pg/mL
MIP-1b level (control 49.37, p = 0.017): >3455↑ pg/ml
TNFa level (control 87.19, p = 0.019): 306 pg/mL and 306.44 pg/mL
IL-27 level (control 88.48): 119.16 pg/mL
sCD40L level (control 92.05): 88.6 pg/mL
G-CSF level (control 181.87, p = 0.012): 1150 pg/mL
IP-10 level (control 191.78): 3346 pg/mL
PDGF-AA level (control 243.05): 189.29 pg/mL
MIG level (control 306.48, p = 0.0018): 959 pg/mL and 959.23 pg/mL
PDGF-AB/BB level (control 692.27): 713.51 pg/mL
MCP-3 level (control 707.64): 4706 pg/mL
VEGFa level (control 1586): 2190 pg/mL
IL-6 level (control 2266): 5678 pg/mL
MDC level (control 4385): 1264 pg/mL
GROa level (control 4827): 4862 pg/mL
MCP-1 level (control 12186): 5364 pg/mL
IL-8 level (control 15625): 19839 pg/mL
IL-7 level (control <0.30): <0.30↓ pg/ml
IL-5 level (control <0.35): <0.35↓ pg/ml
IL-3 level (control <0.55): <0.55↓ pg/ml
RANTES level (control <0.64): 729.59 pg/mL
IL-17A level (control <0.70): 2.63 pg/mL
IL-12 (p70) level (control <1.71): 2.3 pg/mL
Eotaxin level (control <2.91): <2.91↓ pg/ml
IL-17F level (control <12.19): <12.19↓ pg/ml
IL-17E/IL-25 level (control <19.43): <19.43↓ pg/ml
